Experiments:
[1] = tested on: IT-tg and IT-wt mice; assay: CPP test of sensitivity to addictive drugs in IT-tg and IT-wt mice
[2] = tested on: wild-type mice; assay: Relapse of cocaine-induced hyperlocomotion after drug deprivation, wild-type mice; assay type: in vivo; settings: cocaine 10 mg/kg 6 days, withheld days 7-11, day 12 donepezil 1 mg/kg 10 min before cocaine, P<0.001 vs saline, FIG. 5e
Description: Drug-induced sensitization caused by continuous daily cocaine administration persists for a long term even after a prolonged period of abstinence from the drug. This is taken seriously as a mechanism of relapse, whereby a drug dependent individual resumes taking a drug after a long-term interruption. The effects of donepezil in blocking relapse of cocaine dependence were examined as follows: Wild-type mice (9-13 weeks) received intraperitoneal injection of cocaine (10 mg/kg) once a day for 6 days and cocaine dependence was established in mice. For 5 days, from day 7 to day 11, mice were withheld from cocaine and were kept in their home cage. On day 12, the mice were pretreated with saline or donepezil (1 mg/kg) 10 min before intraperitoneal injection with cocaine (10 mg/kg). The locomotor activity was then measured for 10 min (n=6 for each group).

[3] = tested on: wild-type mice; assay: Development of cocaine-induced locomotor sensitization in wild-type mice; settings: donepezil 1 mg/kg 10 min before daily cocaine 10 mg/kg i.p., 10 min measurement, ANOVA P<0.001, FIG. 5b
[4] = tested on: wild-type mice; assay: Cocaine-induced hyperlocomotion on day 6 after establishment of cocaine dependence, wild-type mice; assay type: in vivo; settings: cocaine 10 mg/kg i.p. daily 5 days, day 6 pretreatment 1 mg/kg 10 min before cocaine, FIG. 5c, P<0.001, P<0.01
Description: Wild-type mice (9-13 weeks) received intraperitoneal injection of cocaine (10 mg/kg) once a day for 5 days. […] On day 6, the mice were pretreated with saline, donepezil (1 mg/kg) or galanthamine (1 mg/kg) 10 min before intraperitoneal injection of cocaine (10 mg/kg), and the cocaine-induced locomotor activity was measured for 10 min (n=5-12 for each group).

[5] = tested on: IT-wt and IT-tg mice; assay: Cocaine-induced hyperlocomotion on day 6 in IT-wt and IT-tg mice; assay type: in vivo; settings: cocaine 10 mg/kg daily 5 days, day 6 donepezil 1 mg/kg 10 min before cocaine
Description: Cholinergic cell-eliminated (IT-tg) mice wherein ACh-expressing cells (cholinergic cells) in the NAc were ablated were prepared and used in the experiment for examining the effects of reduction of ACh level in the NAc on sensitivity to an addictive drug (a drug dependence-producing drug). Selective ablation of cholinergic cells in the NAc was conducted through immunotoxin-mediated cell targeting (IMCT) techniques using transgenic mice and anti-Tac(Fv)-PE38 as the immunotoxin (Kobayashi et al., Proc. Natl Acad. Sci. USA 92, 1132-1136 (1995); Watanabe et al., Cell 95, 17-27 (1998)). Anti-Tac (Fv)-PE38 is a recombinant fusion protein composed of a variable region of a monoclonal antibody against human interleukin 2 receptor α subunit (hIL-2Rα) and Pseudomonas exotoxin, and can be purified from E. coli BL21 as described by Chaudhary et al. (Nature 339, 394-397 (1989)). Anti-Tac(Fv)-PE38 is an immunotoxin that can specifically recognize cells expressing hIL-2Rα and inhibits their protein synthesis, thereby eliminating the cells expressing hIL-2Rα. […]
The present investigation was conducted to examine whether ACh derived from the NAc cholinergic cells is responsible for cocaine-induced hyperlocomotion. […] Their cocaine-induced locomotion was then measured for 10 min (n=7-11 for each group). […]

[6] = tested on: IT-tg and IT-wt mice; assay: Morphine CPP test in cholinergic cell-eliminated (IT-tg) and IT-wt mice with donepezil pretreatment; assay type: in vivo; settings: donepezil hydrochloride 1 mg/kg i.p. 20 min before morphine 5 mg/kg, 3-day conditioning
Description: (§1) Cholinergic cell-eliminated (IT-tg) mice wherein ACh-expressing cells (cholinergic cells) in the NAc were ablated were prepared and used in the experiment for examining the effects of reduction of ACh level in the NAc on sensitivity to an addictive drug (a drug dependence-producing drug). Selective ablation of cholinergic cells in the NAc was conducted through immunotoxin-mediated cell targeting (IMCT) techniques using transgenic mice and anti-Tac(Fv)-PE38 as the immunotoxin (Kobayashi et al., Proc. Natl Acad. Sci. USA 92, 1132-1136 (1995); Watanabe et al., Cell 95, 17-27 (1998)). […] Anti-Tac(Fv)-PE38 is an immunotoxin that can specifically recognize cells expressing hIL-2Rα and inhibits their protein synthesis, thereby eliminating the cells expressing hIL-2Rα. The present inventors have developed a method for selectively ablating cholinergic cells in the NAc; the method comprising administering anti-Tac(Fv)-PE38 locally to a transgenic mouse whose NAc specifically expressed hIL-2Rα in cholinergic cells. […] Both wild-type and transgenic mice were C57B6/J strain. […] The above-mentioned IT-treated transgenic mouse was used as cholinergic cell-eliminated mouse (IT-tg) in the Experiments and Examples hereinafter described.

[7] = tested on: wild-type mice; assay: Cocaine CPP test in wild-type mice; settings: donepezil hydrochloride 1 or 3 mg/kg i.p. (both doses) 20 min before drug, cocaine 10 mg/kg daily, 3 days, P<0.01, FIG. 5a
[8] = tested on: wild-type mice; assay: Morphine conditioned place preference (CPP) test in wild-type mice; settings: donepezil hydrochloride 1 or 3 mg/kg i.p. (both doses) 20 min before morphine 5 mg/kg, 3-day conditioning, P<0.01, FIG. 4a
[9] = tested on: IT-tg mice; assay: Cocaine CPP test in IT-tg mice with ACh receptor agonist pretreatment; assay type: in vivo; settings: methyl atropine 2 mg/kg pretreatment, pilocarpine 100 mg/kg 20 min before cocaine 5 mg/kg, 3 days, P<0.01 vs saline, FIG. 6
Description: as §1

[10] = tested on: IT-tg and IT-wt mice; assay: Conditioned place aversion (CPA) test, naloxone-precipitated morphine withdrawal; settings: naloxone 1 mg/kg after morphine 50 mg/kg
[11] = tested on: IT-tg and IT-wt mice; assay: Morphine withdrawal symptom (jumping) induced by naloxone; settings: naloxone 1 mg/kg 1 hr after morphine 50 mg/kg

SMILES: CN1CC[C@]23c4c5ccc(O)c4O[C@H]2[C@@H](O)C=C[C@H]3[C@H]1C5 [morphine]
- place preference for morphine-paired chamber, IT-tg mice, 1 mg/kg ([1]; IT-tg mice, 3-day conditioning with 1 mg/kg morphine i.p., P<0.05, FIG. 2a): significant preference
- place preference for morphine-paired chamber, IT-wt mice, 1 mg/kg ([1]; IT-wt mice, 3-day conditioning with 1 mg/kg morphine i.p., FIG. 2a): no such preference was observed
- place preference for morphine-paired chamber, 5 mg/kg ([1]; both IT-tg and IT-wt mice, conditioning with 5 mg/kg morphine): exhibited place preference

SMILES: COc1cc2c(cc1OC)C(=O)C(CC1CCN(Cc3ccccc3)CC1)C2 (stereo not drawn) [donepezil]
- abnormal hyperlocomotion after cocaine re-administration on day 12 (relapse) [2]: no abnormal hyperlocomotion was observed
- increase in locomotor activity by repeated cocaine administration (locomotor sensitization) [3]: no such increase was observed
- cocaine-induced hyperlocomotion on day 6 [4]: significantly effective in inhibiting
- effects on cocaine-induced locomotion in IT-tg group ([5]; IT-tg mice, FIG. 5d): not observed
- cocaine-induced abnormal behaviors (locomotor sensitization) in IT-wt group ([5]; IT-wt mice, P<0.05, FIG. 5d): significantly decreased
- morphine-induced CPP in IT-tg mice ([6]; IT-tg mice, FIG. 4b): failed to suppress
- morphine-induced CPP in IT-wt mice ([6]; IT-wt mice, P<0.01, FIG. 4b): significantly reduced
- degree of cocaine-induced CPP [7]: significantly reduced
- development of morphine-induced CPP [8]: significantly reduced

SMILES: COc1ccc2c3c1O[C@H]1C[C@@H](O)C=C[C@@]31CCN(C)C2 [galanthamine]
- cocaine-induced hyperlocomotion on day 6 [4]: significantly effective in inhibiting

SMILES: CC[C@@H]1C(=O)OC[C@@H]1Cc1cncn1C [pilocarpine]
- development of cocaine-induced CPP in IT-tg mice [9]: significantly reduced

SMILES: C=CCN1CC[C@]23c4c5ccc(O)c4O[C@H]2C(=O)CC[C@@]3(O)[C@H]1C5 [naloxone]
- place aversion to naloxone-paired chamber ([10]; both IT-tg and IT-wt morphine-dependent mice, FIG. 2b): exhibited place aversion
- place aversion to naloxone-paired chamber, IT-tg vs IT-wt mice ([10]; morphine-dependent mice, P<0.05, FIG. 2b): stronger place aversion
- jumping (physical morphine withdrawal symptom) ([11]; IT-tg and IT-wt morphine-dependent mice, counted over 20 min): observed in both
- number of jumps, IT-tg vs IT-wt mice ([11]; morphine-dependent mice, 20 min, P<0.05, FIG. 3): significantly more number of jumps

From patent US20060058336A1, “Pharmaceutical composition for treatment of drug dependence” (priority 2003, published 2006)
